Assay [1] can be described thus: Inhibition of NS5B polymerase S365A mutant in HCV genotype 1A infected in HuH7 cells after 40 hrs by Taqman probe based RT-PCR analysis.
The nature of assay [2]: Inhibition of NS5B polymerase in HCV genotype 1a infected in HuH7 cells after 40 hrs by Taqman probe based RT-PCR analysis.
Assay [3] can be described thus: Inhibition of NS5B polymerase in HCV genotype 3A infected in HuH7 cells after 40 hrs by Taqman probe based RT-PCR analysis.
Assay [4] can be described thus: Inhibition of NS5B polymerase in HCV genotype 4A infected in HuH7 cells after 40 hrs by Taqman probe based RT-PCR analysis.
A short description of assay [5]: Inhibition of NS5B polymerase in HCV genotype 2A infected in HuH7 cells after 40 hrs by Taqman probe based RT-PCR analysis.
Assay [6] in a line: Inhibition of NS5B polymerase in HCV genotype 2B infected in HuH7 cells after 40 hrs by Taqman probe based RT-PCR analysis.
The nature of assay [7]: Inhibition of NS5B polymerase in HCV genotype 1b infected in HuH7 cells after 40 hrs by Taqman probe based RT-PCR analysis.
Assay [8] in a line: Inhibition of NS5B polymerase C316Y mutant in HCV genotype 1A infected in HuH7 cells after 40 hrs by Taqman probe based RT-PCR analysis.
Assay [9] in a line: Inhibition of NS5B polymerase E1202G/T1280I/S2197P mutant in HCV genotype 2a infected in human HuH7 replicon cells after 72 hrs in presence of 10% FBS by luciferase-based reporter assay.
A short description of assay [10]: Inhibition of NS5B polymerase E1202G/T1280I/S2197P mutant in HCV genotype 1b infected in human HuH7 replicon cells after 72 hrs in presence of 50% human serum by luciferase-based reporter assay.
Assay [11] can be described thus: Inhibition of NS5B polymerase E1202G/T1280I/S2197P mutant in HCV genotype 1b infected in human HuH7 replicon cells after 72 hrs in presence of 10% FBS by luciferase-based reporter assay.
Assay [12] is described as follows: Inhibition of NS5B polymerase E1202G/T1280I/S2197P mutant in HCV genotype 1a infected in human HuH7 replicon cells after 72 hrs in presence of 10% FBS by luciferase-based reporter assay.

In the case of `CNC(=O)c1c(-c2ccc(F)cc2)oc2cc(N(C)S(C)(=O)=O)c(-c3ccc4c(n3)-c3cc5c(F)cccc5n3CCC4)cc12` [US9243002, 72], the EC50 in [1] came to 16 nM; in assay [2], 1.1 nM; in [3] it was 1.2 nM; in assay [4] it was 1.5 nM; in assay [5], 6.8 nM; in assay [6], 6.5 nM. For the same compound, the EC50 is 1.9 nM in assay [7] and 26 nM in assay [8].
`CNC(=O)c1c(-c2ccc(F)cc2)oc2cc(N(C)S(C)(=O)=O)c(-c3ccc4c(n3)-c3cc5c(F)cccc5n3CCCC4)cc12` [US9243002, 99]: the EC50 in assay [1] worked out at 42 nM; in [2], 2 nM; in assay [3], 1.9 nM; in assay [4] it was 3.5 nM; in assay [5], 26 nM; in [6], 3.8 nM. In addition, the concentration for a half-maximal effect (EC50) came to 5.2 nM in assay [7] and 13 nM in assay [8].
As for `CNC(=O)c1c(-c2ccc(F)cc2)oc2cc(N(C)S(C)(=O)=O)c(-c3ccc4c(n3)-c3cc5c(F)cccc5n3CN4)cc12`, the half-maximal effective concentration (EC50) was 3.1 nM in assay [1]; 6.4 nM in assay [9]; 0.9 nM in assay [2]; 1 nM in assay [3]; 1.1 nM in assay [4]; 5.7 nM in assay [5]. The EC50 in assay [6] came to 2.9 nM; in [7], 1.8 nM; in assay [10], 46 nM; in assay [8] it was 7.6 nM; in [11] it was 5.3 nM; in assay [12], 5.3 nM.
Consider `CNC(=O)c1c(-c2ccc(F)cc2)oc2cc(N(C)S(C)(=O)=O)c(-c3ccc4ccn5c6cccc(F)c6cc5c4n3)cc12` [US9243002, 82], for which the EC50 amounted to 4.8 nM in [1]; 6.3 nM in assay [9]; 0.95 nM in assay [2]; 1.2 nM in assay [3]; 1.2 nM in assay [4]; 6.7 nM in assay [5]. The EC50 in [6] turned out to be 3.5 nM; in [7] it was 2.6 nM; in assay [10], 30 nM; in [8] it was 11 nM; in [11] it was 5.5 nM; in [12] it was 2.9 nM.
Regarding `CNC(=O)c1c(-c2ccc(F)cc2)oc2cc(N(C)S(C)(=O)=O)c(-c3cc4n(c(=O)c3)CCn3c-4cc4c(F)cccc43)cc12`, the EC50 was 6.4 nM in assay [1]; 0.61 nM in assay [2]; 0.62 nM in assay [3]; 1.5 nM in [4]; 11 nM in [5]; 2.2 nM in assay [6]. The EC50 in [7] turned out to be 1.3 nM; in assay [8], 9.8 nM.
For the compound `CNC(=O)c1c(-c2ccc(F)cc2)oc2cc(N(C)S(C)(=O)=O)c(-c3ccc4c(n3)-c3cc5c(F)cccc5n3CC4)cc12` [US9243002, 85], the EC50 turned out to be 6.5 nM in assay [1]; 5.7 nM in assay [9]; 0.86 nM in [2]; 1.1 nM in [3]; 1.2 nM in [4]; 6 nM in assay [5]. Also, the EC50 was found to be 2.7 nM in assay [6]; 2.1 nM in [7]; 13 nM in assay [10]; 8.4 nM in assay [8]; 3.3 nM in assay [11]; 3 nM in assay [12].
On to `CNC(=O)c1c(-c2ccc(F)cc2)oc2cc(N(C)S(C)(=O)=O)c(-c3ccc4c(n3)-c3cc5c(F)cccc5n3C4)cc12` [US9243002, 88], for which the half-maximal effective concentration (EC50) came out at 34 nM in [1]; 2.2 nM in assay [2]; 3 nM in assay [3]; 2.7 nM in assay [4]; 8.5 nM in assay [5]; 3.9 nM in assay [6]. Besides, the EC50 came out at 5.1 nM in assay [7] and 9.5 nM in [8].
For the compound `CNC(=O)c1c(-c2ccc(F)cc2)oc2cc(N(C)S(C)(=O)=O)c(-c3ccc4ncn5c6cccc(F)c6cc5c4n3)cc12`, the EC50 amounted to 1 nM in assay [1]; 3.3 nM in [9]; 0.68 nM in assay [2]; 1 nM in assay [3]; 0.63 nM in assay [4]; 3.4 nM in assay [5]. In addition, the EC50 was 2.4 nM in assay [6]; 1.4 nM in assay [7]; 16 nM in [10]; 3.1 nM in assay [8]; 3.2 nM in assay [11]; 2 nM in assay [12].

The values above are taken from BindingDB's records for doi:10.1016/j.bmcl.2018.10.045 (Merck, 2019).
